Molecules are shown by their SMILES.

These results are taken from patent US12065424B1, “6′(4-methoxyphenyl)-2′-alkoxy-3,4′-bipyridine-3′-carbonitrile as antimicrobial compounds” (KING FAISAL UNIVERSITY, priority 2023, dated 2024).

What all share (assay type): cell-based
One assay concerns Bacillus Cereus. The assay is described as follows: Agar plate disc-diffusion, antibacterial inhibition zone. To be noted: nutrient agar, 37° C., 48 h, DMSO zone subtracted. The method, then:
(§1) The agar plate disc-diffusion method was applied. Sterilized filter papers (6 mm in diameter) were wetted with 10 μL of a solution of 6′-(4-methoxyphenyl)-2′-ethoxy-3,4′-bipyridine-3′-carbonitrile (4) or 6′-(4-methoxyphenyl)-2′-methoxy-3,4′-bipyridine-3′-carbonitrile (5) to be tested, containing […] in DMSO, and the discs were allowed to air dry. The discs were then placed onto the surface of agar plates (nutrient agar for bacteria and Sabouraud's dextrose agar for fungi) seeded with the test organism. Each plate contained 15 mL of the agar medium, previously seeded with 0.2 mL of the broth culture of each organism pregrown for 18 hours. The plates were incubated at 37° C. for 48 h, and 72 h for fungi. The inhibition zones were measured in mm. Discs impregnated with DMSO were used as a control, and its inhibition zone was subtracted from the tested compound actual inhibition zone.
(§2) The results of the antimicrobial testing can be observed in Tables 1 and 2, below, using ciprofloxacin as a reference.

The subject of the next assay is Staphylococcus aureus. Described as above. To be noted: nutrient agar, 37° C., 48 h, DMSO zone subtracted. On the procedure:
as §1, §2

Another assay has as its system Pseudomonas aeruginosa. Described as above. To be noted: nutrient agar, 37° C., 48 h, DMSO zone subtracted. The method, then: as §1, §2
In a further assay the test system is Escherichia coli. The assay is described as above. The settings on record: nutrient agar, 37° C., 48 h, DMSO zone subtracted. On the procedure:
as §1, §2

Another assay relates to different microbes. Description: Antimicrobial activity, overall statement on Tables 1 and 2. To be noted: summary of Tables 1 and 2, bacteria and fungi. The method, then:
as §1
Their antibacterial activity was screened against gram positive bacteria namely Bacillus cereus and Staphylococcus aureus and gram-negative bacterial strains namely Pseudomonas aeruginosa and Escherichia coli, while their antifungal activity was screened against Aspergillus flavus and Chrysosporium keratinophilum.

In assay [1] the test system is Chrysosporium keratinophilum. The assay is described as follows: Agar plate disc-diffusion, antifungal inhibition zone. To be noted: Sabouraud's dextrose agar, 37° C., 72 h, DMSO zone subtracted. On the procedure: as §1, §2
In general terms: In agar diffusion tests the substance spreads into inoculated agar from a disc or well.

The next assay deals with Aspergillus flavus. The description is as above. To be noted: Sabouraud's dextrose agar, 37° C., 72 h, DMSO zone subtracted. The method, then:
as §1, §2

The mark [2] stands for this setting: A = concentration of comp. = 10,000 μL.
The mark [3] stands for this setting: B = concentration of comp. = 30.000 μL.
Where [4] appears, read: C = concentration of comp. = 50,000 μL.

For the compound `COc1ccc(-c2cc(-c3cccnc3)c(C#N)c(OC)n2)cc1` [Compound 5, 6′-(4-methoxyphenyl)-2′-methoxy-3,4′-bipyridine-3′-carbonitrile], the inhibition zone in the assay with Bacillus Cereus (setting [2]) came to 23 mm; in the assay with Bacillus Cereus (setting [3]), 25 mm; in the assay with Bacillus Cereus (setting [4]), 37 mm; in the assay with Staphylococcus aureus (setting [2]), 19 mm; in the assay with Staphylococcus aureus (setting [3]) it was 27 mm; in the assay with Staphylococcus aureus (setting [4]), 32 mm. In addition, the inhibition zone is listed as 23 mm in the assay on Pseudomonas aeruginosa (setting [2]); 31 mm in the assay with Pseudomonas aeruginosa (setting [3]); 39 mm in the assay on Pseudomonas aeruginosa (setting [4]); 27 mm with Escherichia coli (setting [2]); 37 mm in the assay on Escherichia coli (setting [3]); 50 mm in the assay on Escherichia coli (setting [4]). Further, the inhibition zone in assay [1] (setting [2]) is 27 mm; in assay [1] (setting [3]), 28 mm; in assay [1] (setting [4]), 49 mm; in the assay on Aspergillus flavus (setting [2]), 24 mm; in the assay with Aspergillus flavus (setting [3]) it was 26 mm; with Aspergillus flavus (setting [4]), 39 mm. For the same compound, in the assay with different microbes, the “antimicrobial activities (in words)” value was “high antimicrobial activities”.

Take `O=C(O)c1cn(C2CC2)c2cc(N3CCNCC3)c(F)cc2c1=O` [Cip., ciprofloxacin, reference compound]: the inhibition zone was 29 mm in the assay with Bacillus Cereus (setting [2]); 30 mm in the assay with Bacillus Cereus (setting [3]); 42 mm in the assay with Bacillus Cereus (setting [4]); 43 mm in the assay with Staphylococcus aureus (setting [2]); 44 mm in the assay with Staphylococcus aureus (setting [3]); 53 mm in the assay with Staphylococcus aureus (setting [4]). Besides, the inhibition zone with Pseudomonas aeruginosa (setting [2]) was 29 mm; in the assay with Pseudomonas aeruginosa (setting [3]), 30 mm; with Pseudomonas aeruginosa (setting [4]), 53 mm; in the assay with Escherichia coli (setting [2]) it was 30 mm; with Escherichia coli (setting [3]), 39 mm; in the assay with Escherichia coli (setting [4]), 60 mm. In addition, the inhibition zone in assay [1] (setting [2]) is reported as 29 mm; in assay [1] (setting [3]), 30 mm; in assay [1] (setting [4]) it was 53 mm; with Aspergillus flavus (setting [2]), 29 mm; with Aspergillus flavus (setting [3]), 30 mm; in the assay on Aspergillus flavus (setting [4]) it was 42 mm.

On to `CCOc1nc(-c2ccc(OC)cc2)cc(-c2cccnc2)c1C#N` [Compound 4, 6′-(4-methoxyphenyl)-2′-ethoxy-3,4′-bipyridine-3′-carbonitrile], for which the inhibition zone with Bacillus Cereus (setting [2]) turned out to be 19 mm; with Bacillus Cereus (setting [3]) it was 25 mm; in the assay with Bacillus Cereus (setting [4]) it was 32 mm; in the assay on Staphylococcus aureus (setting [2]), 17 mm; in the assay on Staphylococcus aureus (setting [3]) it was 21 mm; in the assay on Staphylococcus aureus (setting [4]), 31 mm. In addition, the inhibition zone in the assay with Pseudomonas aeruginosa (setting [2]) is 25 mm; in the assay on Pseudomonas aeruginosa (setting [3]), 28 mm; in the assay with Pseudomonas aeruginosa (setting [4]), 41 mm; in the assay on Escherichia coli (setting [2]), 26 mm; in the assay on Escherichia coli (setting [3]), 36 mm; with Escherichia coli (setting [4]), 49 mm. Moreover, the inhibition zone in assay [1] (setting [2]) was determined as 25 mm; in assay [1] (setting [3]) it was 28 mm; in assay [1] (setting [4]), 46 mm; in the assay on Aspergillus flavus (setting [2]), 23 mm; with Aspergillus flavus (setting [3]), 27 mm; in the assay with Aspergillus flavus (setting [4]) it was 38 mm. In addition, the “antimicrobial activities (in words)” value in the assay on different microbes was “high antimicrobial activities”.
